Measurements published in patent publication US20100298141A1, “SUBSTITUTED PYRIDINE N-OXIDE HERBICIDES” (E. I. DU PONT DE NEMOURS AND COMPANY, priority 2007, published 2010).

Assays:
[1] = test system: barnyardgrass; assay: Test A pre-/postemergence greenhouse test; format: in vivo, Echinochloa crus-galli; conditions: for Barnyardgrass plant response rating: 0 to 100 scale; for Plant response rating, Barnyardgrass: 0 to 100 scale where 0 is no effect and 100 is complete control
Text: (§1) Seeds of barnyardgrass (Echinochloa crus-galli), crabgrass (Digitaria sanguinalis), giant foxtail (Setaria faberi), morningglory (Ipomoea spp.), redroot pigweed (Amaranthus retroflexus), velvetleaf (Abutilon theophrasti), wheat (Triticum aestivum), and corn (Zea mays) were planted into a blend of loam soil and sand and treated preemergence with a directed soil spray using test compounds formulated in a non-phytotoxic solvent mixture which included a surfactant. At the same time these species were also treated with postemergence applications of test compounds formulated in the same manner. Plants ranged in height from two to ten cm and were in the one- to two-leaf stage for the postemergence treatment. Treated plants and untreated controls were maintained in a greenhouse for approximately ten days, after which time all treated plants were compared to untreated controls and visually evaluated for injury. […] A dash (-) response means no test results.

[2] = test system: wheat; assay: Test A pre-/postemergence greenhouse test; format: in vivo, Triticum aestivum; conditions: for Wheat plant response rating: 0 to 100 scale; for Plant response rating, Wheat: 0 to 100 scale where 0 is no effect and 100 is complete control
Text: as §1

[3] = test system: corn; assay: Test A pre-/postemergence greenhouse test; format: in vivo, Zea mays; conditions: for Corn plant response rating: 0 to 100 scale; for Plant response rating, Corn: 0 to 100 scale where 0 is no effect and 100 is complete control
Text: as §1

[4] = test system: crabgrass; assay: Test A pre-/postemergence greenhouse test; format: in vivo, Digitaria sanguinalis; conditions: for Crabgrass, Large plant response rating: 0 to 100 scale; for Plant response rating, Crabgrass, Large: 0 to 100 scale where 0 is no effect and 100 is complete control
Text: as §1

[5] = test system: giant foxtail; assay: Test A pre-/postemergence greenhouse test; format: in vivo, Setaria faberi; conditions: for Foxtail, Giant plant response rating: 0 to 100 scale; for Plant response rating, Foxtail, Giant: 0 to 100 scale where 0 is no effect and 100 is complete control
Text: as §1

[6] = test system: morningglory; assay: Test A pre-/postemergence greenhouse test; format: in vivo, Ipomoea spp.; conditions: for Morningglory plant response rating: 0 to 100 scale; for Plant response rating, Morningglory: 0 to 100 scale where 0 is no effect and 100 is complete control
Text: as §1

[7] = test system: velvetleaf; assay: Test A pre-/postemergence greenhouse test; format: in vivo, Abutilon theophrasti; conditions: for Velvetleaf plant response rating: 0 to 100 scale; for Plant response rating, Velvetleaf: 0 to 100 scale where 0 is no effect and 100 is complete control
Text: as §1

[8] = test system: rice; assay: Test C flooded paddy test; format: in vivo, Oryza sativa; conditions: Flood
Text: (§2) At time of treatment, test pots were flooded to 3 cm above the soil surface, treated by application of test compounds directly to the paddy water, and then maintained at that water depth for the duration of the test. Treated plants and controls were maintained in a greenhouse for 13 to 15 days, after which time all species were compared to controls and visually evaluated. […] A dash (-) response means no test result.

[9] = test system: redroot pigweed; assay: Test A pre-/postemergence greenhouse test; format: in vivo, Amaranthus retroflexus; conditions: for Pigweed plant response rating: 0 to 100 scale; for Plant response rating, Pigweed: 0 to 100 scale where 0 is no effect and 100 is complete control
Text: as §1

[10] = test system: duck salad; assay: Test C flooded paddy test; format: in vivo, Heteranthera limosa; conditions: Flood
Text: as §2

[11] = test system: umbrella sedge; assay: Test C flooded paddy test; format: in vivo, Cyperus difformis; conditions: Flood
Text: as §2

[12] = test system: barnyardgrass; assay: Test C flooded paddy test; format: in vivo, Echinochloa crus-galli; conditions: Flood
Text: as §2

[13] = Postemergence, 125 g ai/ha, 0 is no effect, 100 is complete control
[14] = Postemergence, 500 g ai/ha, 0 is no effect, 100 is complete control
[15] = Preemergence, 125 g ai/ha, 0 no effect, 100 complete control
[16] = 31 g ai/ha, scale 0 to 100 (0 no effect, 100 complete control)
[17] = 62 g ai/ha, scale 0 to 100, 0 no effect, 100 complete control, 13 to 15 days
[18] = 125 g ai/ha, scale 0 to 100, 0 no effect, 100 complete control, 13 to 15 days
[19] = 250 g ai/ha, scale 0 to 100 (0 no effect, 100 complete control)
[20] = Preemergence, 500 g ai/ha, 0 no effect, 100 complete control

Q: `CC(c1c(C(F)(F)F)nn(C)c1OC(F)F)S(=O)(=O)c1ccc(Br)c[n+]1[O-]` (racemic) [Compound 23] was tested. Which “Barnyardgrass plant response rating” value [1, 13] did it give?
A: 0

Q: What about the “Barnyardgrass plant response rating” value [1, 14] of the same compound?
A: 0

Q: What about the “Barnyardgrass plant response rating” value [1, 15] of the same compound?
A: 40

Q: And the “Plant response rating, Barnyardgrass” value ([1]; Preemergence, 500 g ai/ha)?
A: 90

Q: And the “Wheat plant response rating” value [2, 13]?
A: 0

Q: And the “Wheat plant response rating” value [2, 14]?
A: 0

Q: What about the “Wheat plant response rating” value [2, 15] of the same compound?
A: 0

Q: What about the “Plant response rating, Wheat” value ([2]; Preemergence, 500 g ai/ha) of the same compound?
A: 0

Q: And the “Corn plant response rating” value [3, 13]?
A: 0

Q: And the “Corn plant response rating” value [3, 14]?
A: 0

Q: What about the “Corn plant response rating” value [3, 15] of the same compound?
A: 0

Q: What about the “Plant response rating, Corn” value ([3]; Preemergence, 500 g ai/ha) of the same compound?
A: 0

Q: And the “Crabgrass, Large plant response rating” value [4, 13]?
A: 40

Q: And the “Crabgrass, Large plant response rating” value [4, 14]?
A: 50

Q: And the “Crabgrass, Large plant response rating” value [4, 15]?
A: 60

Q: What about the “Plant response rating, Crabgrass, Large” value ([4]; Preemergence, 500 g ai/ha) of the same compound?
A: 90

Q: What about the “Foxtail, Giant plant response rating” value [5, 13] of the same compound?
A: 0

Q: What about the “Foxtail, Giant plant response rating” value [5, 14] of the same compound?
A: 40

Q: What about the “Foxtail, Giant plant response rating” value [5, 15] of the same compound?
A: 30

Q: What about the “Plant response rating, Foxtail, Giant” value ([5]; Preemergence, 500 g ai/ha) of the same compound?
A: 80

Q: What about the “Morningglory plant response rating” value [6, 13] of the same compound?
A: 0

Q: What about the “Morningglory plant response rating” value [6, 14] of the same compound?
A: 0

Q: And the “Morningglory plant response rating” value [6, 15]?
A: 0

Q: What about the “Plant response rating, Morningglory” value ([6]; Preemergence, 500 g ai/ha) of the same compound?
A: 0

Q: What about the “Velvetleaf plant response rating” value [7, 13] of the same compound?
A: 0

Q: What about the “Velvetleaf plant response rating” value [7, 14] of the same compound?
A: 0

Q: What about the “Velvetleaf plant response rating” value [7, 15] of the same compound?
A: 0

Q: And the “Plant response rating, Velvetleaf” value ([7]; Preemergence, 500 g ai/ha)?
A: 0

Q: And the “Plant response rating, Rice” value [8, 16]?
A: 0

Q: And the “Plant response rating, Rice” value [8, 17]?
A: 70

Q: And the “Plant response rating, Rice” value [8, 18]?
A: 70

Q: And the “Plant response rating, Rice” value [8, 19]?
A: 70

Q: And the “Pigweed plant response rating” value [9, 13]?
A: 0

Q: What about the “Pigweed plant response rating” value [9, 14] of the same compound?
A: 50

Q: And the “Pigweed plant response rating” value [9, 15]?
A: 100

Q: And the “Plant response rating, Pigweed” value ([9]; Preemergence, 500 g ai/ha)?
A: 100

Q: What about the “Plant response rating, Ducksalad” value [10, 16] of the same compound?
A: 0

Q: What about the “Plant response rating, Ducksalad” value [10, 17] of the same compound?
A: 60

Q: And the “Plant response rating, Ducksalad” value [10, 18]?
A: 70

Q: And the “Plant response rating, Ducksalad” value [10, 19]?
A: 80

Q: And the “Plant response rating, Sedge, Umbrella” value [11, 16]?
A: 0

Q: What about the “Plant response rating, Sedge, Umbrella” value [11, 17] of the same compound?
A: 55

Q: And the “Plant response rating, Sedge, Umbrella” value [11, 18]?
A: 75

Q: And the “Plant response rating, Sedge, Umbrella” value ([11]; 250 g ai/ha, scale 0 to 100, 0 no effect, 100 complete control, 13 to 15 days)?
A: 75

Q: What about the “Plant response rating, Barnyardgrass” value [12, 16] of the same compound?
A: 0

Q: What about the “Plant response rating, Barnyardgrass” value [12, 17] of the same compound?
A: 45

Q: What about the “Plant response rating, Barnyardgrass” value [12, 18] of the same compound?
A: 60

Q: What about the “Plant response rating, Barnyardgrass” value [12, 19] of the same compound?
A: 70

Q: How did the “Plant response rating, Barnyardgrass” value ([1]; Postemergence, 125 g ai/ha) turn out when `CCCc1cc[n+]([O-])c(S(=O)(=O)Cc2c(C(F)(F)F)nn(C)c2OCC(F)(F)F)c1` [Compound 115] was run?
A: 60

Q: What about the “Barnyardgrass plant response rating” value [1, 14] of the same compound?
A: 70

Q: And the “Barnyardgrass plant response rating” value [1, 15]?
A: 90

Q: What about the “Barnyardgrass plant response rating” value [1, 20] of the same compound?
A: 90

Q: What about the “Plant response rating, Wheat” value ([2]; Postemergence, 125 g ai/ha) of the same compound?
A: 30

Q: And the “Wheat plant response rating” value [2, 14]?
A: 50

Q: And the “Wheat plant response rating” value [2, 15]?
A: 20

Q: And the “Wheat plant response rating” value [2, 20]?
A: 50

Q: What about the “Plant response rating, Corn” value ([3]; Postemergence, 125 g ai/ha) of the same compound?
A: 0

Q: And the “Corn plant response rating” value [3, 14]?
A: 20

Q: And the “Corn plant response rating” value [3, 15]?
A: 30

Q: What about the “Corn plant response rating” value [3, 20] of the same compound?
A: 50

Q: What about the “Plant response rating, Crabgrass, Large” value ([4]; Postemergence, 125 g ai/ha) of the same compound?
A: 20

Q: What about the “Crabgrass, Large plant response rating” value [4, 14] of the same compound?
A: 70

Q: And the “Crabgrass, Large plant response rating” value [4, 15]?
A: 80

Q: What about the “Crabgrass, Large plant response rating” value [4, 20] of the same compound?
A: 100

Q: And the “Plant response rating, Foxtail, Giant” value ([5]; Postemergence, 125 g ai/ha)?
A: 40

Q: What about the “Foxtail, Giant plant response rating” value [5, 14] of the same compound?
A: 80

Q: And the “Foxtail, Giant plant response rating” value [5, 15]?
A: 90

Q: What about the “Foxtail, Giant plant response rating” value [5, 20] of the same compound?
A: 100

Q: And the “Plant response rating, Morningglory” value ([6]; Postemergence, 125 g ai/ha)?
A: 0

Q: What about the “Morningglory plant response rating” value [6, 14] of the same compound?
A: 0

Q: And the “Morningglory plant response rating” value [6, 15]?
A: 30

Q: What about the “Morningglory plant response rating” value [6, 20] of the same compound?
A: 80

Q: What about the “Plant response rating, Velvetleaf” value ([7]; Postemergence, 125 g ai/ha) of the same compound?
A: 0

Q: What about the “Velvetleaf plant response rating” value [7, 14] of the same compound?
A: 20

Q: What about the “Velvetleaf plant response rating” value [7, 15] of the same compound?
A: 20

Q: What about the “Velvetleaf plant response rating” value [7, 20] of the same compound?
A: 60

Q: What about the “Plant response rating, Pigweed” value ([9]; Postemergence, 125 g ai/ha) of the same compound?
A: 20

Q: What about the “Pigweed plant response rating” value [9, 14] of the same compound?
A: 80

Q: What about the “Pigweed plant response rating” value [9, 15] of the same compound?
A: 100

Q: What about the “Pigweed plant response rating” value [9, 20] of the same compound?
A: 100
